Source: US20240018161A1, “MODULATORS OF CYSTIC FIBROSIS TRANSMEMBRANE CONDUCTANCE REGULATOR” (VERTEX PHARMACEUTICALS INCORPORATED, priority 2020, published 2024)

Molecular target: CFTR-mediated chloride transport in human intestinal epithelial enteroid cells (Homo sapiens, UniProt P13569)
Assay: Membrane potential dye, Enteroid Assay A
Assay type: cell-based
Details: Enteroid Assay A; for EC50: read-out: Ent. A EC50
Procedure, shortened: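 Membrane potential dye (20 μM methyl oxonol, with 30 μM CaCCinh-A01 and 30 μM Chicago Sky Blue) loaded 25 min at room temperature into ROCK-inhibitor-seeded human enteroid cells. Chloride-free stimulation buffer triggered transport, followed by 15 min fluorescence. % Activity relative to 3 μM/3 μM/300 nM triple-combination control.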

Chain of CFTR-mediated chloride transport in human intestinal epithelial enteroid cells (P13569 with tags, fused parts or gaps DEL508-508): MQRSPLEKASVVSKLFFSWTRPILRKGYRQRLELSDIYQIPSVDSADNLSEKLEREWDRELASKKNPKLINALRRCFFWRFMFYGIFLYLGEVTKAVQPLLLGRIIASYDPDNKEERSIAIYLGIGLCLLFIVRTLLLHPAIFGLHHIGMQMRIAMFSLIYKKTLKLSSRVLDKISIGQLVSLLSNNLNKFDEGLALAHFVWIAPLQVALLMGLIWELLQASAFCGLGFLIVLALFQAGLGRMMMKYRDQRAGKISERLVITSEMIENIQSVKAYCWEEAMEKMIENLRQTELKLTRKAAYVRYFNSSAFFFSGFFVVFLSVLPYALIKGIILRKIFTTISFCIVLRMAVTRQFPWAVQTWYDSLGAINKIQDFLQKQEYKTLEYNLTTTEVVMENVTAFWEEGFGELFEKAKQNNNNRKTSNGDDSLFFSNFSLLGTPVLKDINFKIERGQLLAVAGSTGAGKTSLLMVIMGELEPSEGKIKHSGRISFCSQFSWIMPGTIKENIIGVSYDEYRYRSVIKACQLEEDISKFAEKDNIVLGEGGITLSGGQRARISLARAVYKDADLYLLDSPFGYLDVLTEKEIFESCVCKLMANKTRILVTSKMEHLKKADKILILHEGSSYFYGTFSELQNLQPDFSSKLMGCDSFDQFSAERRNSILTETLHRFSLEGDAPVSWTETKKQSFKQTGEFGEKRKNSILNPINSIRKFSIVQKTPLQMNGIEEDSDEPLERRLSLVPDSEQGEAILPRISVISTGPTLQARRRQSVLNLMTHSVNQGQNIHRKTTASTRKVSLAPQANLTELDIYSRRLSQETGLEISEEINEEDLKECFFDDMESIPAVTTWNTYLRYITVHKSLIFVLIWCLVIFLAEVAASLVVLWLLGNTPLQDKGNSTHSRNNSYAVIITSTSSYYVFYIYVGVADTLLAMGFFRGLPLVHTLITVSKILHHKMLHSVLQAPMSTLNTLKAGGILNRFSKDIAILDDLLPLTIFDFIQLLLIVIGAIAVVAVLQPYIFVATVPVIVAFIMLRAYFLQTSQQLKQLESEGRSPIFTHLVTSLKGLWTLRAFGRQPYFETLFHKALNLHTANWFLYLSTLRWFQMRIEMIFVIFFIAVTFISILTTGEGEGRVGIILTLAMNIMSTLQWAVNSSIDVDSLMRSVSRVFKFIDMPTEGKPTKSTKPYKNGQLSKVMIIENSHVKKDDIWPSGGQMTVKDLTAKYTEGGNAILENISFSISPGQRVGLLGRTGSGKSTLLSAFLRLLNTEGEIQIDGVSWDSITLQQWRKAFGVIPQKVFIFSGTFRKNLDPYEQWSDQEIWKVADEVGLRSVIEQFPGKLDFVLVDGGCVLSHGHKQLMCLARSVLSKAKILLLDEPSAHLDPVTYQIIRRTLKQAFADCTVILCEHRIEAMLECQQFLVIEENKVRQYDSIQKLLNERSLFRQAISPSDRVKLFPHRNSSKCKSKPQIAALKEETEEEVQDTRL

Row | Ent. A Max Activity (%) | EC50 [nM] | SMILES
1 | +++ (+++ is >600%) | < 1000 | Cc1cccc(C)c1-c1cc2nc(n1)NS(=O)(=O)c1cccc(c1)C(=O)N1C[C@@H](CN(CC(C)(C)C)C[C@H]1CC(C)C)O2 [Compound 104, (16R,20R)-12-(2,6-Dimethylphenyl)-18-(2,2-dimethylpropyl)-20-(2-methylpropyl)-15-oxa-8λ^6-thia-1,9,11,18,22-pentaazatetracyclo[14.4.1.13,7.110,14]tricosa-3(23),4,6,10,12,14(22)-hexaene-2,8,8-trione]
2 | +++ (+++ is >600%) | < 1000 | Cc1cccc(C)c1-c1cc2nc(n1)NS(=O)(=O)c1cccc(c1)C(=O)N1C[C@H](CC(C)C)NC[C@H](C1)O2 [Compound 108, (16R,19S)-12-(2,6-Dimethylphenyl)-19-(2-methylpropyl)-15-oxa-8λ^6-thia-1,9,11,18,22-pentaazatetracyclo[14.4.1.13,7.110,14]tricosa-3(23),4,6,10(22),11,13-hexaene-2,8,8-trione]
3 | +++ (+++ is >600%) | < 1000 | Cc1cccc(C)c1-c1cc2nc(n1)NS(=O)(=O)c1cccc(c1)C(=O)N1C[C@@H](CN(C3CCC(F)(F)CC3)[C@@H](CC(C)C)C1)O2 [Compound 110, (16R,19S)-18-(4,4-Difluorocyclohexyl)-12-(2,6-dimethylphenyl)-19-(2-methylpropyl)-15-oxa-8λ^6-thia-1,9,11,18,22-pentaazatetracyclo[14.4.1.13,7.110,14]tricosa-3(23),4,6,10(22),11,13-hexaene-2,8,8-trione]
4 | +++ (+++ is >600%) | < 1000 | Cc1cccc(C)c1-c1cc2nc(n1)NS(=O)(=O)c1cccc(c1)C(=O)N1CCN(C(=O)OC(C)(C)C)[C@@H](CC(C)C)[C@H](C1)O2 [Compound 117, tert-Butyl (16S,17S)-12-(2,6-dimethylphenyl)-17-(2-methylpropyl)-2,8,8-trioxo-15-oxa-8λ^6-thia-1,9,11,18,22-pentaazatetracyclo[14.4.1.13,7.110,14]tricosa-3(23),4,6,10(22),11,13-hexaene-18-carboxylate]
5 | ++ (++ is 30-60%) | 1000 to 3000 | Cc1cccc(C)c1-c1cc2nc(n1)NS(=O)(=O)c1cccc(c1)C(=O)N1C[C@@H](CNC[C@H]1C(C)C)O2 [Compound 123, (16R,20R)-12-(2,6-Dimethylphenyl)-20-(propan-2-yl)-15-oxa-8λ^6-thia-1,9,11,18,22-pentaazatetracyclo[14.4.1.13,7.110,14]tricosa-3(23),4,6,10(22),11,13-hexaene-2,8,8-trione]
6 | +++ (+++ is >600%) | < 1000 | Cc1cccc(C)c1-c1cc2nc(n1)NS(=O)(=O)c1cccc(c1)C(=O)N1C[C@@H](CN(C)C[C@H]1C(C)C)O2 [Compound 125, (16R,20R)-12-(2,6-Dimethylphenyl)-18-methyl-20-(propan-2-yl)-15-oxa-8λ^6-thia-1,9,11,18,22-pentaazatetracyclo[14.4.1.13,7.110,14]tricosa-3(23),4,6,10(22),11,13-hexaene-2,8,8-trione]
7 | +++ (+++ is >600%) | < 1000 | Cc1cccc(C)c1-c1cc2nc(n1)NS(=O)(=O)c1cccc(c1)C(=O)N1C[C@@H](CN(C3CCC(F)(F)CC3)C[C@H]1C(C)C)O2 [Compound 126, (16R,20R)-18-(4,4-Difluorocyclohexyl)-12-(2,6-dimethylphenyl)-20-(propan-2-yl)-15-oxa-8λ^6-thia-1,9,11,18,22-pentaazatetracyclo[14.4.1.13,7.110,14]tricosa-3(23),4,6,10(22),11,13-hexaene-2,8,8-trione]
8 | ++ (++ is 30-60%) | < 1000 | Cc1cccc(C)c1-c1cc2nc(n1)NS(=O)(=O)c1cccc(c1)C(=O)N1C[C@@H](CN(C3CC4(CCCC4)C3)C[C@H]1C(C)C)O2 [Compound 127, (16R,20R)-12-(2,6-dimethylphenyl)-20-(propan-2-yl)-18-{spiro[3.4]octan-2-yl}-15-oxa-8λ^6-thia-1,9,11,18,22-pentaazatetracyclo[14.4.1.13,7.110,14]tricosa-3(23),4,6,10(22),11,13-hexaene-2,8,8-trione]
9 | ++ (++ is 30-60%) | < 1000 | Cc1cccc(C)c1-c1cc2nc(n1)NS(=O)(=O)c1cccc(c1)C(=O)N1C[C@@H](CN(C3CC4(CCCCC4)C3)C[C@H]1C(C)C)O2 [Compound 128, (16R,20R)-12-(2,6-dimethylphenyl)-20-(propan-2-yl)-18-{spiro[3.5]nonan-2-yl}-15-oxa-8λ^6-thia-1,9,11,18,22-pentaazatetracyclo[14.4.1.13,7.110,14]tricosa-3(23),4,6,10(22),11,13-hexaene-2,8,8-trione]
10 | +++ (+++ is >600%) | < 1000 | Cc1cccc(C)c1-c1cc2nc(n1)NS(=O)(=O)c1cccc(c1)C(=O)N1C[C@@H](CNC[C@@H]1CCC(C)C)O2 [Compound 130, (16R,20S)-12-(2,6-Dimethylphenyl)-20-(3-methylbutyl)-15-oxa-8λ^6-thia-1,9,11,18,22-pentaazatetracyclo[14.4.1.13,7.110,14]tricosa-3(23),4,6,10(22),11,13-hexaene-2,8,8-trione]
11 | ++ (++ is 30-60%) | < 1000 | Cc1cccc(C)c1-c1cc2nc(n1)NS(=O)(=O)c1cccc(c1)C(=O)N1C[C@@H](CN(C)C[C@@H]1CCC(C)C)O2 [Compound 131, (16R,20S)-12-(2,6-Dimethylphenyl)-18-methyl-20-(3-methylbutyl)-15-oxa-8λ^6-thia-1,9,11,18,22-pentaazatetracyclo[14.4.1.13,7.110,14]tricosa-3(23),4,6,10(22),11,13-hexaene-2,8,8-trione]
12 | +++ (+++ is >600%) | < 1000 | Cc1cccc(C)c1-c1cc2nc(n1)NS(=O)(=O)c1cccc(c1)C(=O)N1C[C@@H](CNC[C@@H]1C(C)C)O2 [Compound 133, (16R,20S)-12-(2,6-Dimethylphenyl)-20-(propan-2-yl)-15-oxa-8λ^6-thia-1,9,11,18,22-pentaazatetracyclo[14.4.1.13,7.110,14]tricosa-3(23),4,6,10(22),11,13-hexaene-2,8,8-trione]
13 | ++ (++ is 30-60%) | < 1000 | Cc1cccc(C)c1-c1cc2nc(n1)NS(=O)(=O)c1cccc(c1)C(=O)N1C[C@@H](CNC[C@@H]1CC(C)(C)C)O2 [Compound 135, (16R,20S)-12-(2,6-Dimethylphenyl)-20-(2,2-dimethylpropyl)-15-oxa-8λ^6-thia-1,9,11,18,22-pentaazatetracyclo[14.4.1.13,7.110,14]tricosa-3(23),4,6,10(22),11,13-hexaene-2,8,8-trione]
14 | +++ (+++ is >600%) | < 1000 | Cc1cccc(C)c1-c1cc2nc(n1)NS(=O)(=O)c1cccc(c1)C(=O)N1C[C@@H](CN(C)C[C@@H]1CC(C)(C)C)O2 [Compound 136, (16R,20S)-12-(2,6-Dimethylphenyl)-20-(2,2-dimethylpropyl)-18-methyl-15-oxa-8λ^6-thia-1,9,11,18,22-pentaazatetracyclo[14.4.1.13,7.110,14]tricosa-3(23),4,6,10(22),11,13-hexaene-2,8,8-trione]
15 | ++ (++ is 30-60%) | < 1000 | Cc1cccc(C)c1-c1cc2nc(n1)NS(=O)(=O)c1cccc(c1)C(=O)N1C[C@@H](CN(C3CCCC3)C[C@H]1CC(C)C)O2 [Compound 138]
16 | +++ (+++ is >600%) | < 1000 | Cc1cccc(C)c1-c1cc2nc(n1)NS(=O)(=O)c1cccc(c1)C(=O)N1C[C@@H](CN(C(C)C)C[C@H]1CC(C)C)O2 [Compound 139]
17 | +++ (+++ is >600%) | < 1000 | Cc1cccc(C)c1-c1cc2nc(n1)NS(=O)(=O)c1cccc(c1)C(=O)N1C[C@@H](CN(C3CC4(CCCCC4)C3)C[C@H]1CC(C)C)O2 [Compound 140]
18 | +++ (+++ is >600%) | < 1000 | Cc1cccc(C)c1-c1cc2nc(n1)NS(=O)(=O)c1cccc(c1)C(=O)N1C[C@@H](CN(C3CC4(CCCC4)C3)C[C@H]1CC(C)C)O2 [Compound 141]
19 | +++ (+++ is >600%) | < 1000 | Cc1cccc(C)c1-c1cc2nc(n1)NS(=O)(=O)c1cccc(c1)C(=O)N1C[C@@H](CN(C3CCC(F)(F)CC3)C[C@H]1CC(C)C)O2 [Compound 142]
20 | +++ (+++ is >600%) | < 1000 | Cc1cccc(C)c1-c1cc2nc(n1)NS(=O)(=O)c1cccc(c1)C(=O)N1C[C@@H](CN(CCC(C)(C)C)C[C@H]1CC(C)C)O2 [Compound 143]
21 | ++ (++ is 30-60%) | < 1000 | Cc1cccc(C)c1-c1cc2nc(n1)NS(=O)(=O)c1cccc(c1)CN1C[C@@H](CN(CCC(C)(C)C)CC1=O)O2 [Compound 145]
22 | +++ (+++ is >600%) | < 1000 | Cc1cccc(C)c1-c1cc2nc(n1)NS(=O)(=O)c1cccc(c1)C(=O)N1C[C@@H](CN(C3CCC(F)(F)CC3)C[C@@H]1C(C)C)O2 [Compound 146]
23 | +++ (+++ is >600%) | < 1000 | Cc1cccc(C)c1-c1cc2nc(n1)NS(=O)(=O)c1cccc(c1)C(=O)N1C[C@@H](CN(C3CC4(CCCC4)C3)C[C@@H]1C(C)C)O2 [Compound 147]
24 | +++ (+++ is >600%) | < 1000 | Cc1cccc(C)c1-c1cc2nc(n1)NS(=O)(=O)c1cccc(c1)C(=O)N1C[C@@H](CN(C3CC4(CCCCC4)C3)C[C@@H]1C(C)C)O2 [Compound 148]
25 | +++ (+++ is >600%) | < 1000 | Cc1cccc(C)c1-c1cc2nc(n1)NS(=O)(=O)c1cccc(c1)C(=O)N1C[C@@H](CN(C)C[C@@H]1C(C)C)O2 [Compound 149]
26 | ++ (++ is 30-60%) | < 1000 | Cc1cccc(C)c1-c1cc2nc(n1)NS(=O)(=O)c1cccc(c1)C(=O)N1C[C@@H](CN(C3CC4(CCCCC4)C3)C[C@@H]1CC(C)C)O2 [Compound 150]
